{"source": "patent US8192962B2", "about": "“Processes for detecting toxic substances” (Daikin Industries, Ltd., priority 2001, dated 2012)", "test_system": "Transport facilitation protein genes", "assay": "DNA chip mRNA expression in yeast, transport facilitation protein genes (Table 5)", "format": "cell-based, Saccharomyces cerevisiae S288C", "procedure,_shortened": "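Value is the scanned fluorescence intensity ratio of exposed versus chemical-free cells. Log-phase S288C yeast in YPD at 25° C. received one toxic substance for two hours, dosed to slow growth without killing; Cy3/Cy5-labeled cDNA from oligo-dT-purified mRNA was hybridized to a whole-genome chip at 65° C.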"}
{"molecule": "S=C([S-])NCCNC(=S)[S-].[Zn+2]", "note": "[(11), zinc N,N′-ethylenebis(dithiocarbamate)]", "values": [{"measurement": "The level of expressed mRNA in the presence of chemical substance/The level of expressed mRNA in the absence of chemical substance", "setting": "yeast gene YHL035C", "result": 0.9}, {"measurement": "The level of expressed mRNA in the presence of chemical substance/The level of expressed mRNA in the absence of chemical substance", "setting": "yeast gene YHL036W", "result": 2.3}, {"measurement": "The level of expressed mRNA in the presence of chemical substance/The level of expressed mRNA in the absence of chemical substance", "setting": "yeast gene YHL040C", "result": 1.7}, {"measurement": "The level of expressed mRNA in the presence of chemical substance/The level of expressed mRNA in the absence of chemical substance", "setting": "yeast gene YHL047C", "result": 1.0}, {"measurement": "The level of expressed mRNA in the presence of chemical substance/The level of expressed mRNA in the absence of chemical substance", "setting": "yeast gene YHR026W", "result": 1.4}, {"measurement": "The level of expressed mRNA in the presence of chemical substance/The level of expressed mRNA in the absence of chemical substance", "setting": "yeast gene YHR048W", "result": 2.0}, {"measurement": "The level of expressed mRNA in the presence of chemical substance/The level of expressed mRNA in the absence of chemical substance", "setting": "yeast gene YHR092C", "result": 1.5}, {"measurement": "The level of expressed mRNA in the presence of chemical substance/The level of expressed mRNA in the absence of chemical substance", "setting": "yeast gene YHR094C", "result": 0.6}, {"measurement": "The level of expressed mRNA in the presence of chemical substance/The level of expressed mRNA in the absence of chemical substance", "setting": "yeast gene YHR175W", "result": 1.1}, {"measurement": "The level of expressed mRNA in the presence of chemical substance/The level of expressed mRNA in the absence of chemical substance", "setting": "yeast gene YIL006W", "result": 1.0}, {"measurement": "The level of expressed mRNA in the presence of chemical substance/The level of expressed mRNA in the absence of chemical substance", "setting": "yeast gene YIL022W", "result": 1.0}, {"measurement": "The level of expressed mRNA in the presence of chemical substance/The level of expressed mRNA in the absence of chemical substance", "setting": "yeast gene YIL056W", "result": 0.7}, {"measurement": "The level of expressed mRNA in the presence of chemical substance/The level of expressed mRNA in the absence of chemical substance", "setting": "yeast gene YIL088C", "result": 1.8}, {"measurement": "The level of expressed mRNA in the presence of chemical substance/The level of expressed mRNA in the absence of chemical substance", "setting": "yeast gene YJL034W", "result": 1.3}, {"measurement": "The level of expressed mRNA in the presence of chemical substance/The level of expressed mRNA in the absence of chemical substance", "setting": "yeast gene YJL212C", "result": 0.9}, {"measurement": "The level of expressed mRNA in the presence of chemical substance/The level of expressed mRNA in the absence of chemical substance", "setting": "yeast gene YJL219W", "result": 2.3}, {"measurement": "The level of expressed mRNA in the presence of chemical substance/The level of expressed mRNA in the absence of chemical substance", "setting": "yeast gene YJR077C", "result": 1.6}, {"measurement": "The level of expressed mRNA in the presence of chemical substance/The level of expressed mRNA in the absence of chemical substance", "setting": "yeast gene YJR106W", "result": 1.6}, {"measurement": "The level of expressed mRNA in the presence of chemical substance/The level of expressed mRNA in the absence of chemical substance", "setting": "yeast gene YJR121W", "result": 0.9}, {"measurement": "The level of expressed mRNA in the presence of chemical substance/The level of expressed mRNA in the absence of chemical substance", "setting": "yeast gene YKL016C", "result": 1.3}, {"measurement": "The level of expressed mRNA in the presence of chemical substance/The level of expressed mRNA in the absence of chemical substance", "setting": "yeast gene YKL146W", "result": 0.9}, {"measurement": "The level of expressed mRNA in the presence of chemical substance/The level of expressed mRNA in the absence of chemical substance", "setting": "yeast gene YKR039W", "result": 1.9}, {"measurement": "The level of expressed mRNA in the presence of chemical substance/The level of expressed mRNA in the absence of chemical substance", "setting": "yeast gene YKR067W", "result": 1.3}, {"measurement": "The level of expressed mRNA in the presence of chemical substance/The level of expressed mRNA in the absence of chemical substance", "setting": "yeast gene YLL028W", "result": 0.7}, {"measurement": "The level of expressed mRNA in the presence of chemical substance/The level of expressed mRNA in the absence of chemical substance", "setting": "yeast gene YLL055W", "result": 3.6}, {"measurement": "The level of expressed mRNA in the presence of chemical substance/The level of expressed mRNA in the absence of chemical substance", "setting": "yeast gene YLR081W", "result": 2.6}, {"measurement": "The level of expressed mRNA in the presence of chemical substance/The level of expressed mRNA in the absence of chemical substance", "setting": "yeast gene YLR295C", "result": 1.3}, {"measurement": "The level of expressed mRNA in the presence of chemical substance/The level of expressed mRNA in the absence of chemical substance", "setting": "yeast gene YLR348C", "result": 1.3}, {"measurement": "The level of expressed mRNA in the presence of chemical substance/The level of expressed mRNA in the absence of chemical substance", "setting": "yeast gene YLR378C", "result": 1.0}, {"measurement": "The level of expressed mRNA in the presence of chemical substance/The level of expressed mRNA in the absence of chemical substance", "setting": "yeast gene YMR011W", "result": 1.5}, {"measurement": "The level of expressed mRNA in the presence of chemical substance/The level of expressed mRNA in the absence of chemical substance", "setting": "yeast gene YMR162C", "result": 1.7}, {"measurement": "The level of expressed mRNA in the presence of chemical substance/The level of expressed mRNA in the absence of chemical substance", "setting": "yeast gene YMR203W", "result": 2.3}, {"measurement": "The level of expressed mRNA in the presence of chemical substance/The level of expressed mRNA in the absence of chemical substance", "setting": "yeast gene YNL055C", "result": 1.9}, {"measurement": "The level of expressed mRNA in the presence of chemical substance/The level of expressed mRNA in the absence of chemical substance", "setting": "yeast gene YNL259C", "result": 1.6}, {"measurement": "The level of expressed mRNA in the presence of chemical substance/The level of expressed mRNA in the absence of chemical substance", "setting": "yeast gene YNR072W", "result": 1.4}, {"measurement": "The level of expressed mRNA in the presence of chemical substance/The level of expressed mRNA in the absence of chemical substance", "setting": "yeast gene YOL119C", "result": 3.4}, {"measurement": "The level of expressed mRNA in the presence of chemical substance/The level of expressed mRNA in the absence of chemical substance", "setting": "yeast gene YOL156W", "result": 1.1}, {"measurement": "The level of expressed mRNA in the presence of chemical substance/The level of expressed mRNA in the absence of chemical substance", "setting": "yeast gene YOL158C", "result": 0.7}, {"measurement": "The level of expressed mRNA in the presence of chemical substance/The level of expressed mRNA in the absence of chemical substance", "setting": "yeast gene YOL163W", "result": 1.6}, {"measurement": "The level of expressed mRNA in the presence of chemical substance/The level of expressed mRNA in the absence of chemical substance", "setting": "yeast gene YOR035C", "result": 1.0}, {"measurement": "The level of expressed mRNA in the presence of chemical substance/The level of expressed mRNA in the absence of chemical substance", "setting": "yeast gene YOR130C", "result": 0.6}, {"measurement": "The level of expressed mRNA in the presence of chemical substance/The level of expressed mRNA in the absence of chemical substance", "setting": "yeast gene YOR153W", "result": 1.0}, {"measurement": "The level of expressed mRNA in the presence of chemical substance/The level of expressed mRNA in the absence of chemical substance", "setting": "yeast gene YOR270C", "result": 1.5}, {"measurement": "The level of expressed mRNA in the presence of chemical substance/The level of expressed mRNA in the absence of chemical substance", "setting": "yeast gene YOR273C", "result": 1.5}, {"measurement": "The level of expressed mRNA in the presence of chemical substance/The level of expressed mRNA in the absence of chemical substance", "setting": "yeast gene YOR316C", "result": 2.4}, {"measurement": "The level of expressed mRNA in the presence of chemical substance/The level of expressed mRNA in the absence of chemical substance", "setting": "yeast gene YOR328W", "result": 1.1}, {"measurement": "The level of expressed mRNA in the presence of chemical substance/The level of expressed mRNA in the absence of chemical substance", "setting": "yeast gene YOR332W", "result": 1.5}, {"measurement": "The level of expressed mRNA in the presence of chemical substance/The level of expressed mRNA in the absence of chemical substance", "setting": "yeast gene YOR348C", "result": 1.1}, {"measurement": "The level of expressed mRNA in the presence of chemical substance/The level of expressed mRNA in the absence of chemical substance", "setting": "yeast gene YPL036W", "result": 0.8}, {"measurement": "The level of expressed mRNA in the presence of chemical substance/The level of expressed mRNA in the absence of chemical substance", "setting": "yeast gene YPL134C", "result": 1.7}, {"measurement": "The level of expressed mRNA in the presence of chemical substance/The level of expressed mRNA in the absence of chemical substance", "setting": "yeast gene YPL265W", "result": 1.8}, {"measurement": "The level of expressed mRNA in the presence of chemical substance/The level of expressed mRNA in the absence of chemical substance", "setting": "yeast gene YPL271W", "result": 1.7}, {"measurement": "The level of expressed mRNA in the presence of chemical substance/The level of expressed mRNA in the absence of chemical substance", "setting": "yeast gene YPR124W", "result": 2.0}, {"measurement": "The level of expressed mRNA in the presence of chemical substance/The level of expressed mRNA in the absence of chemical substance", "setting": "yeast gene YPR192W", "result": 0.7}, {"measurement": "The level of expressed mRNA in the presence of chemical substance/The level of expressed mRNA in the absence of chemical substance", "setting": "yeast gene YPR194C", "result": 0.7}]}
